Where two headings read alike, the source gives them in different places.
What was measured:
S. mansoni schistosomula = experiment: 72 hours schistosomula drug screen; type: cell-based, Schistosoma mansoni; details: for Selectivity Index Schistosomula: HepG2 CC50 over schistosomula EC50; for EC50: Schistosoma mansoni, schistosomula, 72 hour culture
Description: Biological Screening 72 Hours Schistosomula Drug Screen […] G. Colley, […], Schistosoma mansoni: simplified method for the production of schistosomules., Exp. Parasitol. 35 (1974) 44-51. Newly transformed schistosomula were prepared for 72 hour high throughput screening (HTS) in 384-well black-sided microtiter plates (Perkin Elmer, MA, USA) as described in M. Nur-e-alam, M. Yousaf, […]. Bari, H. A. Ghabbour, […]. Ho, A. J. […], Neoclerodane Diterpenoids from […], Teucrium […]. Nat. […] The data obtained in this manner is shown in Table 1 in the columns labelled “Phenotype”, “Motility” and “Schistosomula average”.

S. mansoni adult worms = experiment: Adult worm drug screen (WHO scoring, WormassayGP2); type: cell-based, Schistosoma mansoni; details: for Selectivity Index Adult: HepG2 CC50 over adult worm EC50; for EC50: Schistosoma mansoni, adult worms
Description: Mice (MF-1 mice, Harlan, UK), infected 7 weeks previously with 180 cercaria, were euthanised with an intraperitoneal injection of phenobarbital/heparin solution. Adult worms were recovered by perfusion of the portal system and subjected to drug screening as previously described in Padalino G, Ferla S, Brancale A, Chalmers I W, Hoffmann K F. Int J Parasitol Drugs Drug Resist. 2018 December; 8(3):559-570; in Whiteland H L, Chakroborty A, Forde-Thomas J E, Crusco A, Cookson A, Hollinshead J, Fenn C A, Bartholomew B, Holdsworth P A, Fisher M, Nash R J, Hoffmann K F. Int J Parasitol Drugs Drug Resist. 2018 December; 8(3):465-474; and in Crusco A, Bordoni C, Chakroborty A, Whatley K C L, Whiteland H, Westwell A D, Hoffmann K F. Eur J Med Chem. 2018 May 25; 152:87-100. The data obtained in this manner is shown in Table 1 in the columns labelled “Adult worm”.
Regarding the quantification of drug treatment on adult worms (e.g. decreased activity, paralysis or sluggishness), two different approaches were used, as described below. Where egg deposition was noticed, eggs were removed and counted using a Sedgewick rafter slide.
Adult worms were scored using the standardized microscopic WHO-TDR scoring system previously described by Ramirez, B., Bickle, Q., Yousif, F., Fakorede, F., Mouries, M.-A., Nwaka, S. in Schistosomes: Challenges in compound screening, Expert Opin Drug Discov. 2007 October; 2(s1): S53-61. This scoring system (0-4) identifies changes in worm movement and is defined according to the following scoring matrix: 0=no movement, 1=no movement with visible gut peristalsis, 2=minimal movement (occasional movement from anterior or posterior end of the worm), 3=slow continuous movement and 4=normal movement.
A digital image processing-based system was also used to assess parasite motility after drug treatment and is a modification of methods previously described by Marcellino C., Gut, J., Lim, K., Singh R., McKerrow, L. and Sakanari, J. WormAssay: a novel computer application for whole-plate motion-based screening of macroscopic parasites. PLoS Negl Trop Dis. 2012 January:6(1):e1494. This allowed for objective verification of the WHO method described above. The data obtained with this quantification method is shown in Table 1 in the columns labelled “Adult worm”.

MTT assay on HepG2 cells = type: cell-based; details: human
Description: MTT Assay on HepG2 Cells Human Hepatocyte Carcinoma (HepG2) cells (85011430, Sigma Aldrich) were used to assess the overt toxicity of these anti-infective compounds. […] A negative control (1% v/v Triton X-100; X100, Sigma-Aldrich) was also included in each screen. After addition of compounds, each plate was then incubated for a further 20 hrs before application of MTT reagent (prepared as described in Nur-[…], Bari A, Ghabbour […], Hoffmann […] Nat Prod. 2017 Jun. 23; 80(6):1900-1908 for the assessment of compound cytotoxicity using the MTT assay. […] The plate was then further incubated for 4 hrs. After incubation, each plate was blotted dry under the laminar flow to remove the MTT treated culture media. A 100 μl DMSO: isopropanol (1:1) solution was then added to each well and the plate was then subsequently incubated for 10 minutes at 37° C. Following incubation, each plate was shaken again and then absorbance measured at 570 nm. The absorbance reading was corrected based on the average value of the wells used as blank (no cells). […] The data obtained in this manner is shown in Table 1 in the columns labelled “HepG2”. […] The selectivity indexes for schistosomula and adult worms are shown in the final two columns in Table 1.

H3K4 methylation = experiment: Histone extraction and detection of global H3K4 methylation in treated adult worms; type: cell-based, Schistosoma mansoni; details: sub-lethal concentration 0.0024 μM, male and female adult worms

Row | EC50 (S. mansoni schistosomula; read-out: EC50 Motility) | EC50 (S. mansoni schistosomula; read-out: EC50 Phenotype) | EC50 (S. mansoni adult worms) | SMILES | Selectivity Index Schistosomula (S. mansoni schistosomula) | Selectivity Index Adult (S. mansoni adult worms) | CC50 at 24 h (MTT assay on HepG2 cells) | global H3K4 methylation compared to the negative control (DMSO) (H3K4 methylation)
1 | 1.4 µM | 2.14 µM | 0.18 µM | O=[N+]([O-])c1ccc2nc(Nc3ccc(F)cc3)c(Nc3ccc(F)cc3)nc2c1 [Compound 6, N^2, N^3-bis(4-fluorophenyl)-6-nitroquinoxaline-2,3-diamine] | 12 | 121 | 22 µM | –
2 | 0.43 µM | 0.37 µM | 0.0065 µM | O=[N+]([O-])c1ccc2nc(Nc3cc(F)cc(C(F)(F)F)c3)c(Nc3cc(F)cc(C(F)(F)F)c3)nc2c1 [Compound 8, N^2, N^3-bis(3-fluoro-5-(trifluoromethyl)phenyl)-6-nitroquinoxaline-2,3-diamine] | 25 | 1549 | – | significant % decrease

— patent publication US12503448B2, “Antibacterial and antiparasitic quinoxaline-2,3-diamine derivatives” (University College Cardiff Consultants Limited, priority 2019, dated 2025)
